Assay results reported in PMC9667936, “Functional mapping of the 14-3-3 hub protein as a guide to design 14-3-3 molecular glues” (Chemical Science, 2022).
pKd: −log10 of the molar value. Where a SMILES comes first, the peptide text is derived from it. [ ]: non-standard residue; d: D form. The star is where a group is joined. ξ: configuration not given here. FITC = O=C1OC2(c3ccc(O)cc3Oc3cc(O)ccc32)c2ccc(NC(=S)*)cc21; Phe(4-NO2) = N[C@@H](Cc1ccc([N+](=O)[O-])cc1)C(=O)O; ξAla(4-thiazolyl) = NC(Cc1cscn1)C(=O)O; pS = N[C@@H](COP(=O)(O)O)C(=O)O; β3hS = N[C@@H](CO)CC(=O)O; Nva = CCC[C@H](N)C(=O)O; βAla = NCCC(=O)O

Molecular target: T1, 14-3-3γ (Homo sapiens, UniProt P61981)
T1 construct: made in house; host or cells: E. coli NiCo21 (DE3)
T1 sequence (P61981 1-247): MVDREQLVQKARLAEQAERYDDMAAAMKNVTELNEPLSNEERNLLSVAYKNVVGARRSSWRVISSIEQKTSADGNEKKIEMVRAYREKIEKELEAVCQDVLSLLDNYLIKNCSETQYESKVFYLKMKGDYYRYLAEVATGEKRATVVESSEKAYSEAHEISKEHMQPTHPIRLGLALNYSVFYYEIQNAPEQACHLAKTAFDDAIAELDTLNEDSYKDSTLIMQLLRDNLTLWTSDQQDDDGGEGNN
Assay: Fluorescence anisotropy (FA) binary binding study: 14-3-3 titrated to fluorescein-labelled peptide
Settings: for individual ΔΔG of removed residue: ΔG relative to the previously truncated peptide; for Affinity Kd / pKd: Table S4, point-mutated peptides; for Affinity Kd: 10 nM FITC-labelled peptide; for pKd: 14-3-3 titrated to 10 nM FITC-labelled peptide, HEPES pH 7.4, room temperature, 4PL fit, read-out: Affinity Kd
Procedure: 14-3-3γ protein expression (FP/ITC experiments)
(§1) A pPROEX HTb expression vector encoding the human 14-3-3 protein gamma (14-3-3γ) with an N-terminal his6-tag was transformed by heat shock into NiCo21 (DE3) competent cells. Single colonies were cultured in 50 mL LB medium (100 µg/mL ampicillin). After overnight incubation at 37 °C, cultures were transferred to 2 L TB media (100 µg/mL ampicillin, 1 mM MgCl2) and incubated at 37 °C until an OD600 nm of 0.8-1.2 was reached. Protein expression was then induced with 0.4 mM isopropyl-β-d-thiogalactoside (IPTG), and cultures were incubated overnight at 18 °C. Cells were harvested by centrifugation (8600 rpm, 20 minutes, 4 °C) and resuspended in lysis buffer (50 mM Hepes, pH 8.0, 300 mM NaCl, 12.5 mM imidazole, 5 mM MgCl2, 2 mM βME) containing cOmplete™ EDTA-free Protease Inhibitor Cocktail tablets (1 tablet/100 ml lysate) and benzonase (1 µl/100 ml). After lysis using a C3 Emulsiflex-C3 homogenizer (Avestin), the cell lysate was cleared by centrifugation (20000 rpm, 30 minutes, 4 °C) and purified using Ni2+-affinity chromatography (Ni-NTA superflow cartridges, Qiagen).
Typically two 5 mL columns (flow 5 mL/min) were used for a 2 L culture in which the lysate was loaded on the column washed with 10 CV wash buffer (50 mM Hepes, pH 8.0, 300 mM NaCl, 25 mM imidazole, 2 mM βME) and eluted in several fractions (2-4 CV) of elution buffer (50 mM Hepes, pH 8.0, 300 mM NaCl, 250 mM imidazole, 2 mM βME). Fractions containing the 14-3-3 protein were combined and dialyzed into 25 mM HEPES pH 8.0, 100 mM NaCl, 10 mM MgCl2, 500 µM TCEP. Finally, the protein was concentrated to ∼60 mg/mL, analyzed Q-Tof LC/MS, and aliquots were flash-frozen for storage at […]
as §1, with “sigma truncated after T231 (14-3-3σΔc) and” for “gamma (14-3-3γ)”, “tablet/ 100” for “tablet/100”, “µl/ 100” for “µl/100”, “ml).” for “ml). After lysis using a C3 Emulsiflex-C3 homogenizer (Avestin), the cell lysate was cleared by centrifugation (20000 rpm, 30 minutes, 4 °C) and purified using Ni2+-affinity chromatography (Ni-NTA superflow cartridges, Qiagen).”
After lysis using a C3 Emulsiflex-C3 homogenizer (Avestin), the cell lysate was cleared by centrifugation (20000 rpm, 30 minutes, 4 °C) and purified using Ni2+-affinity chromatography (Ni-NTA superflow cartridges, Qiagen). Typically two 5 mL columns were used for a 2 L culture in which the lysate was loaded on the column washed with 10 CV wash buffer (50 mM Hepes, pH 8.0, 300 mM NaCl, 25 mM imidazole, 2 mM βME) and eluted with several fractions (2-4 CV) of elution buffer (50 mM Hepes, pH 8.0, 300 mM NaCl, 250 mM imidazole, 2 mM βME). Fractions containing the 14-3-3 protein were combined and dialyzed into 25 mM HEPES pH 8.0, 200 mM NaCl, 10 mM MgCl2, 2 mM βME. In addition, 1 mg TEV was added for each 100 mg purified protein to remove the purification tag. The cleaved sample was then again loaded on a 10 mL Ni-NTA column to separate the cleaved product from the expression tag and residual uncleaved protein. The flowthrough was loaded on a Superdex 75 pg 16/60 size exclusion column (GE Life Sciences) using 25 mM HEPES, 100 mM NaCl, 10 mM MgCl2, 500 μM TCEP (adjusted to pH=8.0) as running buffer. Fractions containing the 14-3-3 protein were pooled and concentrated to ∼60 mg/mL, analyzed Q-Tof LC/MS, and aliquots were flash-frozen for storage at −80 […]
The peptides 1 and 2a-d were synthesized on 50 µmol scale on a Rink amide MBHA resin […]

[1] = Table S2, FA KD of peptide divided by KD of previous (one amino acid longer) peptide, mean of n = 3
[2] = Table S2, KD / KD of previous (one amino acid longer) peptide, replicate 1
[3] = Table S2, KD / KD of previous (one amino acid longer) peptide, replicate 2
[4] = Table S2, KD / KD of previous (one amino acid longer) peptide, replicate 3
[5] = Table S2, calculated from FA KD, mean of n = 3
[6] = Table S2, from FA KD, replicate 1
[7] = Table S2, from FA KD, replicate 2
[8] = Table S2, from FA KD, replicate 3
[9] = Table S2, ΔG minus ΔG of previous peptide, FA, replicate 1
[10] = Table S2, ΔG minus ΔG of previous peptide, FA, replicate 2
[11] = Table S2, ΔG minus ΔG of previous peptide, FA, replicate 3
[12] = Table S2, ΔG of peptide minus ΔG of previous (one amino acid longer) peptide, FA, mean of n = 3
[13] = Table S4, FA Kd / Kd of 1, replicate 1
[14] = Table S4, FA Kd / Kd of 1, replicate 2
[15] = Table S4, FA Kd / Kd of 1, replicate 3
[16] = Table S4, FA Kd of peptide divided by Kd of 1, mean of n = 3
[17] = Table S4, calculated from FA Kd, mean of n = 3
[18] = Table S4, from FA Kd, replicate 1
[19] = Table S4, from FA Kd, replicate 2
[20] = Table S4, from FA Kd, replicate 3
[21] = Table S4, ΔG minus ΔG of 1, FA, replicate 1
[22] = Table S4, ΔG minus ΔG of 1, FA, replicate 2
[23] = Table S4, ΔG minus ΔG of 1, FA, replicate 3
[24] = Table S4, ΔG of peptide minus ΔG of 1, FA, mean of n = 3

SMILES | individual ΔΔG of removed residue (FA) | Fold change to previous [1] | Fold change to previous [2] | Fold change to previous [3] | Fold change to previous [4] | ΔG [5] | ΔG [6] | ΔG [7] | ΔG [8] | ΔΔG (to previous) [9] | ΔΔG (to previous) [10] | ΔΔG (to previous) [11] | ΔΔG (to previous) [12] | Affinity Kd (FA, replicate 1) | Affinity Kd (FA, replicate 2) | Affinity Kd (FA, replicate 3) | pKd (FA, mean of n = 3) | Fold change to 1 [13] | Fold change to 1 [14] | Fold change to 1 [15] | also measured
C[C@H](NC(=O)[C@H](CCCCN)NC(=O)[C@H](Cc1ccc([N+](=O)[O-])cc1)NC(=O)CCNC(=O)C[C@H](CO)NC(=O)[C@H](Cc1ccc([N+](=O)[O-])cc1)NC(=O)[C@H](COP(=O)(O)O)NC(=O)C(N)Cc1cscn1)C(=O)N[C@@H](CCCCNC(=S)Nc1ccc2c(c1)C(=O)OC21c2ccc(O)cc2Oc2cc(O)ccc21)C(N)=O (stereo partly drawn) [2c] (H-[ξAla(4-thiazolyl)][pS][Phe(4-NO2)][β3hS][βAla][Phe(4-NO2)]KAK(FITC)-NH2) | only minor energy contributions | 0,53 | 0,51 | 0,53 | 0,56 | -9,90 kcal/mol | -9,93 kcal/mol | -9,88 kcal/mol | -9,88 kcal/mol | -0,40 kcal/mol | -0,38 kcal/mol | -0,34 kcal/mol | -0,37 kcal/mol |  |  |  |  |  |  |  | 
C[C@H](NC(=O)[C@H](CCCCN)NC(=O)[C@H](Cc1ccc([N+](=O)[O-])cc1)NC(=O)CCNC(=O)C[C@H](CO)NC(=O)[C@H](Cc1ccc([N+](=O)[O-])cc1)NC(=O)[C@@H](N)COP(=O)(O)O)C(=O)N[C@@H](CCCCNC(=S)Nc1ccc2c(c1)C(=O)OC21c2ccc(O)cc2Oc2cc(O)ccc21)C(N)=O [2d] (H-[pS][Phe(4-NO2)][β3hS][βAla][Phe(4-NO2)]KAK(FITC)-NH2) | 2.2 kcal/mol | 43,23 | 40,69 | 45,81 | 43,18 | -7,67 kcal/mol | -7,74 kcal/mol | -7,61 kcal/mol | -7,65 kcal/mol | 2,19 kcal/mol | 2,26 kcal/mol | 2,23 kcal/mol | 2,23 kcal/mol |  |  |  |  |  |  |  | fold change in binding affinity on truncation (FA KD relative to the previous (one amino acid longer) peptide): 43 fold; cumulative ΔΔG of truncating the entire N- or C-terminus (FA, relative to peptide 1 (2d: entire N-terminus; 2i: entire C-terminus)): 2.9 kcal/mol; ΔΔG N-term (cumulative, whole N-terminus removed) (Table S2, N-term = 2d relative to 1, FA, mean of n = 3): 2,86 kcal/mol; ΔΔG N-term (cumulative) (Table S2, N-term = 2d relative to 1, FA, replicate 1): 2,88 kcal/mol; ΔΔG N-term (cumulative) (Table S2, N-term = 2d relative to 1, FA, replicate 2): 2,94 kcal/mol; ΔΔG N-term (cumulative) (Table S2, N-term = 2d relative to 1, FA, replicate 3): 2,75 kcal/mol
CCC[C@H](NC(=O)[C@H](N)CCCCN)C(=O)N[C@@H](Cc1ccc([N+](=O)[O-])cc1)C(=O)N[C@@H](C)C(=O)N[C@@H](COP(=O)(O)O)C(=O)N[C@@H](Cc1ccc([N+](=O)[O-])cc1)C(=O)N[C@@H](CO)CC(=O)NCCC(=O)N[C@@H](Cc1ccc([N+](=O)[O-])cc1)C(=O)N[C@@H](CCCCN)C(N)=O [3a] (H-[dK][Nva][Phe(4-NO2)]A[pS][Phe(4-NO2)][β3hS][βAla][Phe(4-NO2)]K-NH2; N-terminus and C-terminus assumed) |  |  |  |  |  |  |  |  |  |  |  |  |  | 0.1 µM | 0.042 µM | 0.072 µM | 7.15 | 1.9 | 0.6 | 1.0 | ΔΔG of point mutation (FA) (FA, relative to 1, mean ± SD, SD): 0.0 ± 0.4 kcal/mol; Fold change to 1 [16]: 1.2; ΔG [17]: -9.8 kcal/mol; ΔG [18]: -9.5 kcal/mol; ΔG [19]: -10.1 kcal/mol; ΔG [20]: -9.7 kcal/mol; ΔΔG to 1 [21]: 0.4 kcal/mol; ΔΔG to 1 [22]: -0.3 kcal/mol; ΔΔG to 1 [23]: 0.0 kcal/mol; ΔΔG to 1 [24]: 0.0 kcal/mol
CCC[C@H](NC(=O)[C@H](N)CCCCN)C(=O)N[C@@H](Cc1ccc([N+](=O)[O-])cc1)C(=O)NC(Cc1cscn1)C(=O)N[C@@H](COP(=O)(O)O)C(=O)N[C@@H](Cc1ccc(O)cc1)C(=O)N[C@@H](CO)CC(=O)NCCC(=O)N[C@@H](Cc1ccc([N+](=O)[O-])cc1)C(=O)N[C@@H](CCCCN)C(N)=O (stereo partly drawn) [4a] (H-[dK][Nva][Phe(4-NO2)][ξAla(4-thiazolyl)][pS]Y[β3hS][βAla][Phe(4-NO2)]K-NH2; N-terminus and C-terminus assumed) |  |  |  |  |  |  |  |  |  |  |  |  |  | 0.047 µM | 0.041 µM | 0.063 µM | 7.30 | 0.9 | 0.6 | 0.9 | Fold change to 1 [16]: 0.8; ΔG [17]: -10.0 kcal/mol; ΔG [18]: -10.0 kcal/mol; ΔG [19]: -10.1 kcal/mol; ΔG [20]: -9.8 kcal/mol; ΔΔG to 1 [21]: -0.1 kcal/mol; ΔΔG to 1 [22]: -0.3 kcal/mol; ΔΔG to 1 [23]: -0.1 kcal/mol; ΔΔG to 1 [24]: -0.2 kcal/mol
